The subject of one test is CyPD. Particulars: cited from earlier work.
For the next test, the system named is adult animals. The settings on record: 10 mg/Kg IV; cited from earlier work.
Test [1] deals with supercomplex assembly (synthasomes). As to the kind of experiment: synthasome levels by clear native immunoblot in adult heart mitochondria. Type of test: biochemical, mice. Particulars: 0.5 mM; n=7. How it is done: Inhibition of CyPD should […] the assembly of the ETC into supercomplexes.
Adult heart mitochondria were used to show decreased supercomplex assembly after PTP opening and increased supercomplex assembly after PTP inhibition or deletion (FIG. 1). A: Mitochondrial permeability transition was induced by 60 μM free Ca^2+ (arrow) and was inhibited by 0.5 mM ADP or 200 nM CsA (top panel). Swelling, indicating PTP opening and a fall in absorbance, is reversible after the addition of 250 μM EGTA (arrow; bottom panel). […] The experimental conditions are summarized below the blot. […] Note that the ATP synthase IGA results a white reaction product, so the shading is correct. (N=4, * p≤0.05, ** p≤0.001 by T-test).
(In general: In western blotting, separated proteins are transferred to a membrane and probed.)

For `CC[C@H]1C[C@H](C)[C@@]2(NC1=O)O[C@@H](C[C@H](O)[C@@H](C)CC/C=C/C=C(\C)[C@@H]1C/C=C/C=C/[C@H](O)[C@H](C)[C@@H](O)[C@@H](CCC(C)=O)C(=O)N[C@@H](C(C)C)C(=O)N[C@@H](Cc3cccc(O)c3)C(=O)N3CCC[C@H](N3)C(=O)O1)[C@H](C)[C@H](O)[C@@H]2C` [Sangliferin A, Sanglifehrin A], in the test with CyPD, the “K0.5 as a CyPD inhibitor” value is recorded as 2 nM and the “potency as a CyPD inhibitor relative to CsA” value is “more potent”. As to Alisporivir, the “potency as a CyPD inhibitor relative to CsA” value in the test on CyPD is given as “about as potent as CsA”. In addition, the “effects of ischemia reperfusion injury in the heart” value in the test on adult animals is listed as “ameliorate”. Take `Nc1ncnc2c1ncn2[C@@H]1O[C@H](COP(=O)(O)OP(=O)(O)O)[C@@H](O)[C@H]1O` [ADP]: the “Ca2+-induced PT decrease of synthasome levels” value in test [1] is given as “inhibited”.

Values taken from patent publication US10179161B2, “Compositions and methods for enhancing cardiac function in the neonate” (priority 2016, dated 2019).
